Experiments:
[1] = Drug localization in nucleus of human LS180 cells at 1 uM after 2 hrs by DAPI-fluoresecence based confocal laser microscopy; assay type: ADME, subcellular; conditions: ls180, 2 h
[2] = Drug localization in nucleus of human SW480 cells at 1 uM after 2 hrs by DAPI-fluoresecence based confocal laser microscopy; assay type: ADME, subcellular; conditions: sw480, 2 h
[3] = Drug uptake in tumor of nude BALB/c mouse xenografted with human LS180 cells assessed as increase in mean fluorescence intensity at 1 mg/kg, iv measured at 0.25 to 72 hrs post administration by fluorescence-based imaging analysis; assay type: ADME, organism-based, Neoplasm; conditions: in vivo
[4] = Octanol water partition coefficient, log P of the compound by reverse-phase HPLC method; assay type: physicochemical
[5] = Retention time of the compound by reverse-phase HPLC method; assay type: physicochemical
[6] = Drug uptake in tumor of nude BALB/c mouse xenografted with human LS180 cells at 1 mg/kg, iv measured at 3 days post administration by DAPI-based confocal laser microscopic analysis; assay type: ADME, organism-based, Neoplasm; conditions: in vivo, 72 h
[7] = Drug uptake in nude BALB/c mouse body cavity xenografted with human LS180 cells assessed as increase in mean fluorescence intensity at 1 mg/kg, iv measured at 1 hr post administration by fluorescence-based imaging analysis; assay type: ADME, organism-based; conditions: in vivo
[8] = Drug uptake in liver of nude BALB/c mouse xenografted with human LS180 cells at 1 mg/kg, iv measured at 3 days post administration by DAPI-based confocal laser microscopic analysis; assay type: ADME, organism-based; conditions: in vivo, 72 h
[9] = Drug uptake in tumor of nude BALB/c mouse xenografted with human SW480 cells at 1 mg/kg, iv measured up to 22 days post administration by fluorescence-based imaging analysis; assay type: ADME, organism-based, Neoplasm; conditions: in vivo, 528 h
[10] = Drug uptake in tumor of nude BALB/c mouse xenografted with human LS180 cells at 1 mg/kg, iv measured after 9 days post administration by fluorescence-based imaging analysis; assay type: ADME, organism-based, Neoplasm; conditions: in vivo, 216 h
[11] = Drug uptake in kidneys of nude BALB/c mouse xenografted with human LS180 cells at 1 mg/kg, iv measured at 3 days post administration by DAPI-based confocal laser microscopic analysis; assay type: ADME, organism-based, Kidney; conditions: in vivo, 72 h
[12] = Drug uptake in nude BALB/c mouse body cavity xenografted with human LS180 cells assessed as increase in mean fluorescence intensity at 1 mg/kg, iv measured at 24 hrs post administration by fluorescence-based imaging analysis; assay type: ADME, organism-based; conditions: in vivo
[13] = Drug uptake in tumor of human SW480 cells xenografted in nude BALB/c mouse assessed as increase in mean fluorescence intensity at 1 mg/kg, iv measured at 0.25 to 72 hrs post administration by fluorescence-based imaging analysis; assay type: ADME, organism-based, Neoplasm; conditions: in vivo
[14] = Drug uptake in tumor of nude BALB/c mouse xenografted with human LS180 cells at 1 mg/kg, iv measured at 9 days post administration by DAPI-based confocal laser microscopic analysis; assay type: ADME, organism-based, Neoplasm; conditions: in vivo, 216 h
[15] = Drug uptake in heart of nude BALB/c mouse xenografted with human LS180 cells at 1 mg/kg, iv measured at 3 to 9 days post administration by DAPI-based confocal laser microscopic analysis; assay type: ADME, organism-based; conditions: in vivo
[16] = Drug uptake in human LS180 cells up to 1 uM in presence of 4 degC temperature for 2 hrs by fluorospectrometry; assay type: ADME, cell-based; conditions: ls180, 2 h
[17] = Drug uptake in spleen of nude BALB/c mouse xenografted with human LS180 cells at 1 mg/kg, iv measured at 3 to 9 days post administration by DAPI-based confocal laser microscopic analysis; assay type: ADME, organism-based; conditions: in vivo
[18] = Drug uptake in lungs of nude BALB/c mouse xenografted with human LS180 cells at 1 mg/kg, iv measured at 3 to 9 days post administration by DAPI-based confocal laser microscopic analysis; assay type: ADME, organism-based, Lung; conditions: in vivo
[19] = Drug uptake in human LS180 cells after 24 hrs by fluorospectrometry; assay type: ADME, cell-based; conditions: ls180, 24 h
[20] = Drug uptake in human SW480 cells xenografted in nude BALB/c mouse at 1 mg/kg, iv measured after 9 days post administration by fluorescence-based imaging analysis; assay type: ADME, organism-based, Neoplasm; conditions: in vivo, 216 h
[21] = Drug uptake in human SW480 cells after 24 hrs by fluorospectrometry; assay type: ADME, cell-based; conditions: sw480, 24 h
[22] = Drug uptake in tumor of nude BALB/c mouse xenografted with human LS180 cells assessed as increase in mean fluorescence intensity at 1 mg/kg, iv measured at 3 to 72 hrs post administration by fluorescence-based imaging analysis; assay type: ADME, organism-based, Neoplasm; conditions: in vivo
[23] = Drug uptake in tumor of nude BALB/c mouse xenografted with human LS180 cells at 1 mg/kg, iv measured at 2 hrs post administration by fluorescence-based imaging analysis; assay type: ADME, organism-based, Neoplasm; conditions: in vivo
[24] = Drug uptake in tumor of nude BALB/c mouse xenografted with human LS180 cells at 1 mg/kg, iv measured at 48 hrs post administration by fluorescence-based imaging analysis; assay type: ADME, organism-based, Neoplasm; conditions: in vivo
[25] = Drug uptake in tumor of nude BALB/c mouse xenografted with human LS180 cells assessed as mean fluorescence intensity at 1 mg/kg, iv measured at 72 hrs post administration by fluorescence-based imaging analysis; assay type: ADME, organism-based, Neoplasm; conditions: in vivo
[26] = Drug uptake in tumor of nude BALB/c mouse xenografted with human LS180 cells assessed as increase in mean fluorescence intensity at 1 mg/kg, iv measured at 6 hrs post administration by fluorescence-based imaging analysis; assay type: ADME, organism-based, Neoplasm; conditions: in vivo
[27] = Drug uptake in human SW480 cells up to 1 uM after 24 hrs by fluorospectrometry; assay type: ADME, cell-based; conditions: sw480, 24 h
Mus musculus [28] = experiment: Drug uptake in non-tumor tissue area of nude BALB/c mouse xenografted with human LS180 cells assessed as increase in mean fluorescence intensity at 1 mg/kg, iv measured at 5 mins post administration by fluorescence-based imaging analysis; assay type: ADME, organism-based; conditions: in vivo
Mus musculus [29] = experiment: Drug uptake in non-tumor tissue area of nude BALB/c mouse xenografted with human LS180 cells assessed as increase in mean fluorescence intensity at 1 mg/kg, iv measured at 24 hrs post administration by fluorescence-based imaging analysis; assay type: ADME, organism-based; conditions: in vivo
[30] = Drug uptake in human LS180 cells up to 1 uM after 24 hrs by fluorospectrometry; assay type: ADME, cell-based; conditions: ls180, 24 h
[31] = Drug uptake in tumor of nude BALB/c mouse xenografted with human LS180 cells at 1 mg/kg, iv measured after 4 days post administration by fluorescence-based imaging analysis; assay type: ADME, organism-based, Neoplasm; conditions: in vivo, 96 h
[32] = Drug uptake in tumor of nude BALB/c mouse xenografted with human LS180 cells assessed as increase in mean fluorescence intensity at 1 mg/kg, iv measured at 3 hrs post administration by fluorescence-based imaging analysis; assay type: ADME, organism-based, Neoplasm; conditions: in vivo
[33] = Drug uptake in tumor of nude BALB/c mouse xenografted with human LS180 cells assessed as increase in mean fluorescence intensity at 1 mg/kg, iv measured at 48 hrs post administration by fluorescence-based imaging analysis; assay type: ADME, organism-based, Neoplasm; conditions: in vivo

| Drug uptake [1] | Drug uptake [2] | logP [4] | Retention_time [5] [min] | Drug uptake [6] | Drug uptake [8] | Drug uptake [10] | Drug uptake [11] | Drug uptake [12] | Drug uptake [13] | Drug uptake [14] | Drug uptake [15] | Drug uptake [16] | Drug uptake [17] | Drug uptake [18] | Drug uptake [23] | Drug uptake [24] [%] | Drug uptake [27] | Drug uptake [30] | SMILES | further results |
| --- | --- | --- | --- | --- | --- | --- | --- | --- | --- | --- | --- | --- | --- | --- | --- | --- | --- | --- | --- | --- |
| Not Active | Not Active |  |  |  |  |  |  |  |  |  |  |  |  |  |  |  |  |  | O=C(O)c1ccccc1-c1c2ccc(=O)cc-2oc2cc(O)ccc12 | Drug uptake [3]: Not Active |
|  |  | 1.46 | 11.4 |  |  |  |  |  |  |  |  |  |  |  |  |  |  |  | CN(C)CCCNC(=O)CCNC(=O)c1cc(NC(=O)c2cc(NC(=O)CCNC(=O)c3cc(NC(=O)c4cc(NC(=O)c5cc(NC(=O)CCCNC(=O)c6cc(NC(=O)c7cc(NC(=O)c8cc(NC(=O)CCNC(=O)c9nc(NC(=O)c%10nc(NC(=O)CCNC(=S)Nc%11ccc(-c%12c%13ccc(=O)cc-%13oc%13cc(O)ccc%12%13)c(C(=O)O)c%11)cn%10C)cn9C)cn8C)cn7C)cn6C)cn5C)cn4C)cn3C)cn2C)cn1C |  |

Second part, the compound before the results:

| SMILES | Drug uptake [1] | Drug uptake [2] | logP [4] | Retention_time [5] [min] | Drug uptake [6] | Drug uptake [8] | Drug uptake [10] | Drug uptake [11] | Drug uptake [12] | Drug uptake [13] | Drug uptake [14] | Drug uptake [15] | Drug uptake [16] | Drug uptake [17] | Drug uptake [18] | Drug uptake [23] | Drug uptake [24] [%] | Drug uptake [27] | Drug uptake [30] | further results |
| --- | --- | --- | --- | --- | --- | --- | --- | --- | --- | --- | --- | --- | --- | --- | --- | --- | --- | --- | --- | --- |
| CN(C)CCCNC(=O)CCNC(=O)c1cc(NC(=O)c2cc(NC(=O)CCNC(=O)c3cc(NC(=O)c4cc(NC(=O)c5cc(NC(=O)CCCNC(=O)c6cc(NC(=O)c7nc(NC(=O)c8nc(NC(=O)CCNC(=O)c9nc(NC(=O)c%10nc(NC(=O)CCNC(=S)Nc%11ccc(-c%12c%13ccc(=O)cc-%13oc%13cc(O)ccc%12%13)c(C(=O)O)c%11)cn%10C)cn9C)cn8C)cn7C)cn6C)cn5C)cn4C)cn3C)cn2C)cn1C |  |  | 1.36 | 10.48 |  |  |  |  |  |  |  |  |  |  |  |  |  |  |  |  |
| CN(C)CCCNC(=O)CCNC(=O)c1cc(NC(=O)c2cc(NC(=O)CCNC(=O)c3cc(NC(=O)c4cc(NC(=O)c5cc(NC(=O)CCCNC(=O)c6cc(NC(=O)c7cc(NC(=O)c8cc(NC(=O)CCNC(=O)c9nc(NC(=O)c%10cc(NC(=O)CCNC(=S)Nc%11ccc(-c%12c%13ccc(=O)cc-%13oc%13cc(O)ccc%12%13)c(C(=O)O)c%11)cn%10C)cn9C)cn8C)cn7C)cn6C)cn5C)cn4C)cn3C)cn2C)cn1C | Active | Active | 1.5 | 11.73 | Active | Active | Active | Active | Not Active | Active | Active | Not Active | Active | Not Active | Not Active | Active | 50 |  |  | Drug uptake [7]: Active; Drug uptake [9]: Active; Drug uptake [19]: Dose-dependent effect; Drug uptake [20]: Active; Drug uptake [21]: Dose-dependent effect; Drug uptake [22]: Active |
| CN(C)CCCNC(=O)CCNC(=O)c1cc(NC(=O)c2cc(NC(=O)CCNC(=O)c3cc(NC(=O)c4cc(NC(=O)c5cc(NC(=O)CCCNC(=O)c6cc(NC(=O)c7cc(NC(=O)c8nc(NC(=O)CCNC(=O)c9nc(NC(=O)c%10nc(NC(=O)CCNC(=S)Nc%11ccc(-c%12c%13ccc(=O)cc-%13oc%13cc(O)ccc%12%13)c(C(=O)O)c%11)cn%10C)cn9C)cn8C)cn7C)cn6C)cn5C)cn4C)cn3C)cn2C)cn1C | Active | Active | 1.42 | 10.97 | Active | Active | Not Active | Active |  | Active | Not Active | Not Active |  | Not Active | Not Active | Active | 50 | Active | Active | Drug uptake [25]: Active; Drug uptake [26]: Active; Drug uptake (Mus musculus [28]): Active; Drug uptake (Mus musculus [29]): Not Active |
| CN(C)CCCNC(=O)CCNC(=O)c1cc(NC(=O)c2cc(NC(=O)CCNC(=O)c3cc(NC(=O)c4cc(NC(=O)c5cc(NC(=O)CCCNC(=O)c6nc(NC(=O)c7nc(NC(=O)c8nc(NC(=O)CCNC(=O)c9nc(NC(=O)c%10nc(NC(=O)CCNC(=S)Nc%11ccc(-c%12c%13ccc(=O)cc-%13oc%13cc(O)ccc%12%13)c(C(=O)O)c%11)cn%10C)cn9C)cn8C)cn7C)cn6C)cn5C)cn4C)cn3C)cn2C)cn1C | Active | Active | 1.19 | 8.86 | Active | Active |  | Active | Not Active | Active | Not Active | Not Active | Not Active | Not Active | Not Active | Active | 50 | Active | Active | Drug uptake [31]: Not Active; Drug uptake [32]: Active; Drug uptake [33]: Not Active |

Source: ChEMBL document CHEMBL4118118, “Hydrophobic structure of hairpin ten-ring pyrrole-imidazole polyamides enhances tumor tissue accumulation/retention in vivo” (Bioorg Med Chem, 2018)
